Literature values in patent US11642308B2, “Ready to use liquid formulation” (priority 2020, dated 2023).

Conditions: ≈25° C. and ≈1 bar

Compound: O=O [oxygen]
- solubility in water: about 40 mg/L
